The assay relates to A549 lung cancer cells. Briefly: MTT cell viability assay, A549. The class given is cell-based. Particulars: Homo sapiens, A549, 48 h, mean ± SD. How it is done: The cell lines were purchased from the American Type Culture Collection (ATCC). The cancer cell lines DU-145, PC-3, T-47D, MDA-MB-231, H1299, and A549, and the non-tumorigenic cells (184B5 and BEAS-2B), were maintained in RPMI 1640 medium (Gibco, Alcobendas, Madrid, Spain) supplemented with 10% fetal bovine serum (FBS; Gibco) and 1% antibiotics (10.00 units/mL penicillin and 10.00 mg/mL streptomycin; Gibco). Colon cancer cells HT-29 and HCT-116 were cultured in McCoy’s 5A medium (Gibco) supplemented with 10% fetal bovine serum (FBS; Gibco) and 1% antibiotics (10.00 units/mL penicillin and 10.00 mg/mL streptomycin; Gibco). Cells were maintained in tissue culture flasks at 37 °C and 5% CO2. The culture medium was replaced every three days.
The antiproliferative activity and selectivity in vitro of the Se-NSAID derivatives were determined by the (3-(4,5-dimethylthiazol-2-yl)-2,5-diphenyltetrazolium bromide) (MTT) assay. Compounds were dissolved in DMSO at a concentration of 0.01 M and serial dilutions were prepared. The Se-NSAID derivatives were tested at seven concentrations ranging between 1 and 100 µM in the colon (HT-29 and HCT-116), prostate (DU-145 and PC-3), breast (MDA-MB-231 and T-47D), and lung (H1299 and A549) cancer cell lines. The non-tumorigenic breast (184B5) and lung (BEAS-2B) cell lines were also tested to assess the selectivity of the compounds following the same procedure. A total of 1 × 10^4 cells were seeded per well in 96-well plates and incubated at 5% CO2 and 37 °C for 24 h. Then, cells were treated with either DMSO or increasing concentrations of the corresponding Se-NSAID derivatives for 48 h. A volume of 20 µL of MTT (5 mg/mL) was added to each well 2.5 h before the termination point. At the end of the experiment, the medium was removed, and the resultant formazan crystals formed by mitochondrial reduction of MTT were dissolved in 50 µL of DMSO. Absorbance was measured at 550 nm. IC50, GI50, TGI, and LC50 values were calculated using OriginPro version 8.5.1. software by nonlinear curve fitting. Selectivity indexes (SI) were calculated as the ratio of the IC50 values determined for the nonmalignant and the tumoral cells in the breast (IC50 (184B5)/IC50 (MDA-MB-231) and IC50 (184B5)/IC50 (T-47D)) and lung (IC50 (BEAS-2B)/IC50 (H1299) and IC50 (BEAS-2B)/IC50 (A549)) cell lines. Data were obtained from at least three independent experiments performed in triplicates.
(In general: Tetrazolium dyes change colour on reduction, which living cells bring about.)

On to `CC(C)Cc1ccc(C(C)C(=O)[Se][Se]C(=O)C(C)c2ccc(CC(C)C)cc2)cc1` (centres unmarked) [Compound 5, 2-(4-Isobutylphenyl)propanoic diselenoperoxyanhydride], for which half-maximal inhibition (IC50) was put at 4.5 ± 0.6 µM. Besides, the GI50 (in general, the concentration giving 50% growth inhibition) (Table S1) was found to be 2.3 ± 0.2 µM.

For the origin of these results see article PMC10525927, “First Generation of Antioxidant Precursors for Bioisosteric Se-NSAIDs: Design, Synthesis, and In Vitro and In Vivo Anticancer Evaluation” (Antioxidants, 2023).
